US7915402B2, “Antioxidant inflammation modulators: oleanolic acid derivatives with saturation in the C-ring” (Reata Pharmaceuticals, Inc., priority 2008, dated 2011)

Tests used:
RAW264.7 macrophages = assay: Cell viability, WST-1 reagent; assay type: cell-based, mouse; conditions: RAW264.7 (20 ng/ml IFNγ)
Protocol: (§1) FIGS. 1-8 and 32-34. Inhibition of NO Production. RAW264.7 macrophages were pre-treated with DMSO or drugs at various concentrations (nM) for 2 hours, then treated with 20 ng/ml IFNγ for 24 hours. NO concentration in media was determined using a Griess reagent system; cell viability was determined using WST-1 reagent.
(§2) Nitric Oxide production and cell viability. RAW264.7 macrophages were pre-treated with DMSO or drugs for 2 hours, then treated with recombinant mouse IFNγ (Sigma) for 24 hours. NO concentration in media was determined using the Griess reagent system (Promega). Cell viability was determined using WST-1 reagent (Roche).

[1] = test system: IFNγ-induced NO production in RAW264.7 macrophages; assay: Suppression of IFNγ-induced NO production (Griess reagent); assay type: cell-based, mouse; conditions: RAW264.7, 20 ng/ml IFNγ 24 h, 2 h pre-treatment
Protocol: as §1, §2

mice = assay: 9-day toxicity study in mice; assay type: in vivo; conditions: sesame oil, p.o. daily for 9 days
Protocol: In a second experiment, six additional compound differing only in the saturation or non-saturation of the C ring were tested for toxicity in mice by daily oral administration for 9 days, using sesame oil as the vehicle.

IC50 ([1]; Mus musculus) | IC50 [1] | Compound | IC50 (RAW264.7 macrophages; Mus musculus) | IC50 (RAW264.7 macrophages) | Mortality (mice; 3 mg/kg) | Mortality (mice; 10 mg/kg) | Mortality (mice; 30 mg/kg)
~50 nM | – | Cn1nnc([C@]23CCC(C)(C)C[C@H]2[C@H]2C(=O)C[C@@H]4[C@@]5(C)C=C(C#N)C(=O)C(C)(C)[C@@H]5CC[C@@]4(C)[C@]2(C)CC3)n1 [Compound 63230, (4aR,6aR,6bR,8aS,12aS,12bR,14aR,14bR)-4,4,6a,6b,11,11,14b-heptamethyl-8a-(2-methyl-2H-tetrazol-5-yl)-3,13-dioxo-3,4,4a,5,6,6a,6b,7,8,8a,9,10,11,12,12a,12b,13,14,14a,14b-icosahydropicene-2-carbonitrile] | > 200 nM | – | – | – | –
– | > 200 nM | CC1(C)CC[C@]2(C(=O)NCC(F)(F)F)CC[C@]3(C)[C@H]([C@H](O)C[C@@H]4[C@@]5(C)C=C(C#N)C(=O)C(C)(C)[C@@H]5CC[C@]43C)[C@@H]2C1 [Compound 63268] | – | > 200 nM | – | – | –
~20 nM | – | COC(=O)[C@]12CCC(C)(C)C[C@H]1[C@H]1C(=NO)C[C@@H]3[C@@]4(C)C=C(C#N)C(=O)C(C)(C)[C@@H]4CC[C@@]3(C)[C@]1(C)CC2 [Compound 63295, (4aS,6aR,6bR,8aR,12aR,12bR,14aR,14bS)-methyl 11-cyano-14-(hydroxyimino)-2,2,6a,6b,9,9,12a-heptamethyl-10-oxo-1,2,3,4,4a,5,6,6a,6b,7,8,8a,9,10,12a,12b,13,14,14a,14b-icosahydropicene-4a-carboxylate] | > 200 nM | – | – | – | –
~70 nM | – | Cc1nnc([C@]23CCC(C)(C)C[C@H]2[C@H]2C(=O)C[C@@H]4[C@@]5(C)C=C(C#N)C(=O)C(C)(C)[C@@H]5CC[C@@]4(C)[C@]2(C)CC3)s1 [Compound 63274, (4aR,6aR,6bR,8aS,12aS,12bR,14aR,14bR)-4,4,6a,6b,11,11,14b-heptamethyl-8a-(5-methyl-1,3,4-thiadiazol-2-yl)-3,13-dioxo-3,4,4a,5,6,6a,6b,7,8,8a,9,10,11,12,12a,12b,13,14,14a,14b-icosahydropicene-2-carbonitrile] | > 200 nM | – | – | – | –
> 200 nM | – | COC(=O)[C@]12CCC(C)(C)C[C@H]1C1OC(O)C[C@@H]3[C@@]4(C)C=C(C#N)C(=O)C(C)(C)[C@@H]4CC[C@@]3(C)[C@]1(C)CC2 (stereo partly drawn) [Compound 63289, (4aR,6aR,6bS,8aS,12aR,15aR,15bR)-methyl 2-cyano-14-hydroxy-4,4,6a,6b,11,11,15b-heptamethyl-3-oxo-3,4,4a,5,6,6a,6b,7,8,8a,9,10,11,12,12a,12b,14,15,15a,15b-icosahydrodinaphtho[1,2-b:2′,1′-d]oxepine-8a-carboxylate] | > 200 nM | – | – | – | –
> 200 nM | – | COC(=O)[C@]12CCC(C)(C)C[C@H]1[C@H]1C(=O)CC3[C@@]4(C)CC(C#N)=C(O)C(C)(C)[C@@H]4CC[C@@]3(C)[C@]1(C)CC2 (stereo partly drawn) [Compound 63250, (4aS,6aR,6bR,8aR,12aR,14aR,14bS)-methyl 11-cyano-10-hydroxy-2,2,6a,6b,9,9,12a-heptamethyl-14-oxo-1,2,3,4,4a,5,6,6a,6b,7,8,8a,9,12,12a,12b,13,14,14a,14b-icosahydropicene-4a-carboxylate] | > 200 nM | – | – | – | –
~200 nM | – | COC(=O)[C@]12CCC(C)(C)C[C@H]1[C@H]1NC(=O)C[C@@H]3[C@@]4(C)C=C(C#N)C(=O)C(C)(C)[C@@H]4CC[C@@]3(C)[C@]1(C)CC2 [Compound 63296, (4aR,6aR,6bS,8aS,12aR,12bR,15aR,15bR)-methyl 2-cyano-4,4,6a,6b,11,11,15b-heptamethyl-3,14-dioxo-4,4a,5,6,6a,6b,7,8,8a,9,10,11,12,12a,12b,13,14,15,15a,15b-icosahydro-3H-dinaphtho[1,2-b:2′,1′-d]azepine-8a-carboxylate] | > 200 nM | – | – | – | –
~25 nM | – | CC(=O)[C@]12CCC(C)(C)C[C@H]1[C@H]1C(=O)C[C@@H]3[C@@]4(C)C=C(C#N)C(=O)C(C)(C)[C@@H]4CC[C@@]3(C)[C@]1(C)CC2 [Compound 63308, (4aR,6aR,6bR,8aS,12aS,12bR,14aR,14bR)-8a-acetyl-4,4,6a,6b,11,11,14b-heptamethyl-3,13-dioxo-3,4,4a,5,6,6a,6b,7,8,8a,9,10,11,12,12a,12b,13,14,14a,14b-icosahydropicene-2-carbonitrile] | > 200 nM | – | – | – | –

The remaining lines, values behind:

Compound | IC50 ([1]; Mus musculus) | IC50 [1] | IC50 (RAW264.7 macrophages; Mus musculus) | IC50 (RAW264.7 macrophages) | Mortality (mice; 3 mg/kg) | Mortality (mice; 10 mg/kg) | Mortality (mice; 30 mg/kg)
CC1(C)CC[C@]2(C(=O)OCc3ccccc3)CC[C@]3(C)[C@H](C(=O)C[C@@H]4[C@@]5(C)C=C(C#N)C(=O)C(C)(C)[C@@H]5CC[C@]43C)[C@@H]2C1 [Compound 63323, (4aS,6aR,6bR,8aR,12aR,12bR,14aR,14bS)-benzyl 11-cyano-2,2,6a,6b,9,9,12a-heptamethyl-10,14-dioxo-1,2,3,4,4a,5,6,6a,6b,7,8,8a,9,10,12a,12b,13,14,14a,14b-icosahydropicene-4a-carboxylate] | ~40 nM | – | – | – | 0/5 | 0/5 | 0/5
COC(=O)[C@]12CCC(C)(C)C[C@H]1[C@H]1C(=O)C[C@@H]3[C@@]4(C)Cc5cnoc5C(C)(C)[C@@H]4CC[C@@]3(C)[C@]1(C)CC2 [Compound 63195] | – | > 200 nM | – | > 200 nM | – | – | –
CN(C)C(=O)[C@]12CCC(C)(C)C[C@H]1[C@H]1C(=O)C[C@@H]3[C@@]4(C)C=C(C#N)C(=O)C(C)(C)[C@@H]4CC[C@@]3(C)[C@]1(C)CC2 [Compound 63326, (4aS,6aR,6bR,8aR,12aR,12bR,14aR,14bS)-11-cyano-N,N,2,2,6a,6b,9,9,12a-nonamethyl-10,14-dioxo-1,2,3,4,4a,5,6,6a,6b,7,8,8a,9,10,12a,12b,13,14,14a,14b-icosahydropicene-4a-carboxamide] | ~50 nM | – | – | – | 0/5 | 1/5 | 0/5
CC1(C)CC[C@]2(C(=O)NCC(F)(F)F)CC[C@]3(C)[C@H](C(=O)C[C@@H]4[C@@]5(C)CC(C#N)C(=O)C(C)(C)[C@@H]5CC[C@]43C)[C@@H]2C1 (stereo partly drawn) [Compound 63227, (4aS,6aR,6bR,8aR,12aR,12bR,14aR,14bS)-11-cyano-2,2,6a,6b,9,9,12a-heptamethyl-10,14-dioxo-N-(2,2,2-trifluoroethyl)docosahydropicene-4a-carboxamide] | > 200 nM | – | > 200 nM | – | – | – | –
CONC(=O)[C@]12CCC(C)(C)C[C@H]1[C@H]1C(=O)C=C3[C@@]4(C)C=C(C#N)C(=O)C(C)(C)[C@@H]4CC[C@@]3(C)[C@]1(C)CC2 [Compound 63166, reference compound] | – | – | – | – | 0/5 | 0/5 | 0/5
CC1(C)CC[C@]2(C(=O)NCC(F)(F)F)CC[C@]3(C)[C@H](C(=O)C[C@@H]4[C@@]5(C)Cc6cnoc6C(C)(C)[C@@H]5CC[C@]43C)[C@@H]2C1 [Compound 63223] | – | > 200 nM | – | > 200 nM | – | – | –
CN(C)C(=O)[C@]12CCC(C)(C)C[C@H]1[C@H]1C(=O)C=C3[C@@]4(C)C=C(C#N)C(=O)C(C)(C)[C@@H]4CC[C@@]3(C)[C@]1(C)CC2 [Compound 63324, reference compound] | – | – | – | – | 0/5 | 0/5 | 0/5
CC1(C)CC[C@]2(c3nn[nH]n3)CC[C@]3(C)[C@H](C(=O)C[C@@H]4[C@@]5(C)C=C(C#N)C(=O)C(C)(C)[C@@H]5CC[C@]43C)[C@@H]2C1 [Compound 63229, (4aR,6aR,6bR,8aS,12aS,12bR,14aR,14bR)-4,4,6a,6b,11,11,14b-heptamethyl-3,13-dioxo-8a-(2H-tetrazol-5-yl)-3,4,4a,5,6,6a,6b,7,8,8a,9,10,11,12,12a,12b,13,14,14a,14b-icosahydropicene-2-carbonitrile] | > 200 nM | – | > 200 nM | – | – | – | –
CONC(=O)[C@]12CCC(C)(C)C[C@H]1[C@H]1C(=O)C[C@@H]3[C@@]4(C)C=C(C#N)C(=O)C(C)(C)[C@@H]4CC[C@@]3(C)[C@]1(C)CC2 [Compound 63325, (4aS,6aR,6bR,8aR,12aR,12bR,14aR,14bS)-11-cyano-N-methoxy-2,2,6a,6b,9,9,12a-heptamethyl-10,14-dioxo-1,2,3,4,4a,5,6,6a,6b,7,8,8a,9,10,12a,12b,13,14,14a,14b-icosahydropicene-4a-carboxamide] | ~50 nM | – | – | – | 0/5 | 0/5 | 0/5
